Values of other authors as cited in patent US20020192671A1, “Method and system for predicting the biological activity, including toxicology and toxicity, of substances” (priority 2001, published 2002).

Row | effect on P450 4F levels (P450 4F) | effect on cytochrome P450 4A levels (cytochrome P450 4A) | Compound | toxic effect at high non-therapeutic doses | effect of chronic treatment in rodents (rodents)
1 |  |  | CC(=O)Nc1ccc(O)cc1 [APAP, acetaminophen] | hepatic and renal failure | 
2 | reduce the levels of P450 4F | increase levels of cytochrome P450 4A | CCOC(=O)C(C)(C)Oc1ccc(Cl)cc1 [Clofibrate] |  | hepatomegaly, an increase in hepatic peroxisomes
